The record followed here is ChEMBL document CHEMBL6127136, “Discovery of 1-(Phenylsulfonyl)-1,2,3,4-tetrahydroquinoline Derivative as Orally Bioavailable and Safe RORγt Inverse Agonists for Potential Treatment of Rheumatoid Arthritis” (J Med Chem, 2024).

Activity calls are given as the source filed them. No cut-off for these calls is given here.

The target in data set [1] is T1, Nuclear receptor ROR-gamma (Homo sapiens, UniProt P51449).
T1 sequence (P51449 whole entry): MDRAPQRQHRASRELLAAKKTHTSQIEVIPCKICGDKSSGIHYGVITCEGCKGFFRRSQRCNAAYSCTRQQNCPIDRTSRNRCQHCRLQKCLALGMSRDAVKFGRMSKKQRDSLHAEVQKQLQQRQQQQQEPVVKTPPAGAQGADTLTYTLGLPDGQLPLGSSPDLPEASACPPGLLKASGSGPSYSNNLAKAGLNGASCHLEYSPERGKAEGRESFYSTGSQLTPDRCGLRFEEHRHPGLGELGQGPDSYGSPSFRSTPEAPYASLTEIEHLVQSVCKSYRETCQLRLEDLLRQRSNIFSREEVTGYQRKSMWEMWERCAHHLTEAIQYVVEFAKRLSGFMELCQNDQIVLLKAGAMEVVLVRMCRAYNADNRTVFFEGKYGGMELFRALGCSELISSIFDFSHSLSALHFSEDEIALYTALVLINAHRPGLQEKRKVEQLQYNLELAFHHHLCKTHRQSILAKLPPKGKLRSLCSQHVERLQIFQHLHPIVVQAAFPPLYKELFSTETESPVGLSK
The experiment in a line: Inverse agonist activity at N-terminal 6-His-tagged/APC-labeled human RORgammat LBD extracted from Escherichia coli assessed as inhibition of europium-labeled SRC-1 recruitment incubated for 3 hrs by TR-FRET analysis.

Data set [2] has as its target T1, Nuclear receptor ROR-gamma. The experiment in a line: Inverse agonist activity at GAL4 DNA-binding domain fused RORgamma (unknown origin) transfected in HEK293T cells co-transfected with GAL4-promoter driven luciferase reporter gene assessed as inhibition of RORgammat transcription incubated for 18 to 20 hrs by plate reader analysis. Format: cell-based.
The subject of data set [3] is HeLa. The experiment in a line: Antiproliferative activity against human HeLa cells assessed as inhibition of colony formation at 2 to 8 uM incubated for 7 days by crystal violet staining based light microscopic analysis. Format: toxicity, cell-based. The settings on record: 168 h, dose 2-8 µM, time 7 day.
Data set [4] deals with HUVEC. Description: Antiproliferative activity against HUVEC cells assessed as inhibition of colony formation at 2 to 8 uM incubated for 7 days by crystal violet staining based light microscopic analysis. Format: toxicity, cell-based. The settings on record: human, 168 h, dose 2-8 µM, time 7 day.
The nature of data set [5]: Toxicity in chicken type II collagen-induced arthritis DBA/1 mouse model assessed as behavioral abnormalities at 20 mg/kg/day, po measured after 42 days. In kind it is organism-based. The following applies: in vivo, 1008 h, time 42 day.
Data set [6] can be described thus: Toxicity in chicken type II collagen-induced arthritis DBA/1 mouse model assessed as body weight loss at 20 mg/kg/day, po measured after 42 days. The settings on record: in vivo, 1008 h, time 42 day. In kind it is organism-based.
The subject of data set [7] is Mus musculus. The experiment in a line: Antiarthritic activity in chicken type II collagen-induced arthritis DBA/1 mouse model assessed as reduction in clinical score at 20 mg/kg/day, po measured after 42 days. In kind it is functional, organism-based. The settings on record: time 42.0 day.
Data set [8] is described as follows: Toxicity in chicken type II collagen-induced arthritis DBA/1 mouse model assessed as increase in thymic cortex to medulla ratio at 20 mg/kg/day, po administered for 2 weeks by H and E staining based analysis. In kind it is organism-based. The settings on record: in vivo, 336 h.
A short description of data set [9]: Toxicity in chicken type II collagen-induced arthritis DBA/1 mouse model assessed as signs of thymic enlargement at 20 mg/kg/day, po administered for 2 weeks by H and E staining based analysis. In kind it is organism-based. The settings on record: in vivo, 336 h.
Data set [10] is described as follows: Toxicity in chicken type II collagen-induced arthritis DBA/1 mouse model assessed as signs of lymphoma at 20 mg/kg/day, po administered for 2 weeks by H and E staining based analysis. Format: organism-based. The settings on record: in vivo, 336 h.
Data set [11] in a line: Toxicity in chicken type II collagen-induced arthritis DBA/1 mouse model assessed as morphological changes in thymocytes at 20 mg/kg/day, po administered for 2 weeks by H and E staining based analysis. In kind it is organism-based. The following applies: in vivo, 336 h.
In data set [12] the test system is Mus musculus. Description: Antiarthritic activity in chicken type II collagen-induced arthritis DBA/1 mouse model assessed as improvement in arthritic symptoms at 20 mg/kg/day, po administered for 2 weeks by H and E staining based analysis. Format: functional, organism-based.
The subject of data set [13] is Mus musculus. Description: Antiarthritic activity in chicken type II collagen-induced arthritis DBA/1 mouse model assessed as reduction in fore paw erythema at 20 mg/kg/day, po administered for 2 weeks by H and E staining based analysis. Format: functional, organism-based.
Data set [14] relates to Mus musculus. The experiment in a line: Antiarthritic activity in chicken type II collagen-induced arthritis DBA/1 mouse model assessed as reduction in fore paw swelling at 20 mg/kg/day, po administered for 2 weeks by H and E staining based analysis. In kind it is functional, organism-based.
Data set [15] deals with Mus musculus. Description: Antiarthritic activity in chicken type II collagen-induced arthritis DBA/1 mouse model assessed as reduction in fore paw thickness at 20 mg/kg/day, po administered for 2 weeks by H and E staining based analysis. Format: functional, organism-based.
The subject of data set [16] is Mus musculus. The experiment in a line: Antiarthritic activity in chicken type II collagen-induced arthritis DBA/1 mouse model assessed as reduction in hind paw erythema at 20 mg/kg/day, po administered for 2 weeks by H and E staining based analysis. In kind it is functional, organism-based.
Data set [17] has as its system Mus musculus. Description: Antiarthritic activity in chicken type II collagen-induced arthritis DBA/1 mouse model assessed as reduction in hind paw swelling at 20 mg/kg/day, po administered for 2 weeks by H and E staining based analysis. Format: functional, organism-based.
In data set [18] the test system is Mus musculus. Description: Antiarthritic activity in chicken type II collagen-induced arthritis DBA/1 mouse model assessed as reduction in hind paw thickness at 20 mg/kg/day, po administered for 2 weeks by H and E staining based analysis. Format: functional, organism-based.

Regarding `CCc1ccc2c(c1)CCC(C)(C)N2S(=O)(=O)c1ccc(OCC2CCOCC2)c(CO)c1`, the IC50 in data set [1] is 310 nM.

As to `CC[C@H]1CCc2cc(C(C)C)ccc2N1S(=O)(=O)c1ccc(OCC2CCOCC2)c(CO)c1`, the IC50 came to 8.4 nM in data set [1] and 22.1 nM in data set [2].

For the molecule `CCc1ccc2c(c1)CCCN2S(=O)(=O)c1ccc(OCC2CCOCC2)c(CO)c1`, the IC50 in [1] is 858 nM.

Turning to `CCc1ccc2c(c1)CCC(CC)N2S(=O)(=O)c1ccc(OCC2CCOCC2)c(CO)n1` (racemic), in [1], the IC50 came to 212 nM.

With `CCc1ccc2c(c1)CCC(CC)N2S(=O)(=O)c1ccc(OCc2ccncn2)c(CO)c1` (racemic), in [1], the IC50 amounted to 300 nM.

For the molecule `CCc1ccc2c(c1)CCC(CC)N2S(=O)(=O)c1ccc(OCCC(C)(C)O)c(CO)c1` (racemic), in data set [1], the IC50 was determined as 459 nM.

Take `CC1CCc2cc(C#N)ccc2N1S(=O)(=O)c1ccc(OCC2CCOCC2)c(CO)c1` (racemic): in data set [1], the IC50 came to 689 nM.

In the case of `CCc1ccc2c(c1)CCC(CC)N2S(=O)(=O)c1ccc(OCC2CCOCC2)c(S(C)(=O)=O)c1` (racemic), the half-maximal inhibitory concentration (IC50) in [1] was found to be 1860 nM.

As for `CCc1ccc2c(c1)CC(C)CN2S(=O)(=O)c1ccc(OCC2CCOCC2)c(CO)c1` (racemic), the IC50 in data set [1] amounted to 36 nM.

On to `CCc1ccc2c(c1)CCC(CC)N2S(=O)(=O)c1ccc(C(CO)N2CCOCC2)c(CO)c1` (racemic), for which the IC50 in [1] is 3120 nM.

As to `CCc1ccc2c(c1)CCC(CC)N2S(=O)(=O)c1ccc(OCC2CCOCC2)c(CO)c1` (racemic), the IC50 in data set [1] came out at 11 nM. Moreover, the Activity entry in [3] and in [4] was “Non-Toxic” each time.

Take `CCc1ccc2c(c1)CCC(CC)N2S(=O)(=O)c1ccc(OC2CN(C(C)=O)C2)c(CO)c1` (racemic): the IC50 in data set [1] worked out at 1760 nM.

Consider `CCc1ccc2c(c1)CCC(C)N2S(=O)(=O)c1ccc(OCC2CCOCC2)c(CO)c1` (racemic), for which the IC50 in [1] was 24 nM.

As to `CCc1ccc2c(c1F)CCC(CC)N2S(=O)(=O)c1ccc(OCC2CCOCC2)c(CO)c1` (racemic), in [1], the IC50 was 14 nM.

`CCC1CCc2cc(C(F)(F)F)ccc2N1S(=O)(=O)c1ccc(OCC2CCOCC2)c(CO)c1` (racemic): in data set [1], the concentration for half-maximal inhibition (IC50) is 21 nM.

As for `CCc1ccc2c(c1)C(C)CCN2S(=O)(=O)c1ccc(OCC2CCOCC2)c(CO)c1` (racemic), the IC50 in [1] was 655 nM.

For the molecule `CCc1ccc2c(c1)CCC(CC)N2S(=O)(=O)c1ccc(OC2CCN(S(C)(=O)=O)CC2)c(CO)c1` (racemic), the IC50 in data set [1] was 170 nM.

Regarding `CCC1CCc2cc(CC(C)(F)F)ccc2N1S(=O)(=O)c1ccc(OCC2CCOCC2)c(CO)c1` (racemic), in data set [1], the IC50 is 16 nM.

Turning to `CCc1ccc2c(c1)CCC(CC)N2S(=O)(=O)c1ccc(C(O)CC2CCOCC2)c(CO)c1` (racemic), the IC50 in [1] is 201 nM.

For the molecule `CCC1CCc2cc(C(C)(C)O)ccc2N1S(=O)(=O)c1ccc(OCC2CCOCC2)c(CO)c1` (racemic), the IC50 in data set [1] amounted to 1400 nM.

For the molecule `CCc1ccc2c(c1)CCC(CC)N2S(=O)(=O)c1ccc(OCCS(C)(=O)=O)c(CO)c1` (racemic), the half-inhibitory concentration (IC50) in data set [1] was determined as 1430 nM.

For `CC1CCc2cc(C3CC3)ccc2N1S(=O)(=O)c1ccc(OCC2CCOCC2)c(CO)c1` (racemic), the IC50 in [1] came to 21 nM.

On to `CCc1ccc2c(c1)CCC(C(F)(F)F)N2S(=O)(=O)c1ccc(OCC2CCOCC2)c(CO)c1` (racemic), for which the IC50 in data set [1] worked out at 23 nM.

As to `CCC1CCc2cc(CC(F)(F)F)ccc2N1S(=O)(=O)c1ccc(OCC2CCOCC2)c(CO)c1` (racemic), in data set [1], the IC50 was found to be 23 nM.

Consider `CCc1ccc2c(c1)CCC(CC)N2S(=O)(=O)c1ccc(OCC2CCS(=O)(=O)CC2)c(CO)c1` (racemic), for which the IC50 in data set [1] stood at 146 nM.

Take `C=C(C)c1ccc2c(c1)CCC(CC)N2S(=O)(=O)c1ccc(OCC2CCOCC2)c(CO)c1` (racemic): the IC50 in data set [1] amounted to 12 nM.

For the molecule `CCc1ccc2c(c1)CCC(C(C)C)N2S(=O)(=O)c1ccc(OCC2CCOCC2)c(CO)c1` (racemic), in data set [1], the half-inhibitory concentration (IC50) is 2 nM.

With `CCc1ccc2c(c1)CCC(CO)N2S(=O)(=O)c1ccc(OCC2CCOCC2)c(CO)c1` (racemic), in data set [1], the IC50 came to 3420 nM.

For the molecule `CCC1CCc2cc(C(C)(C)C)ccc2N1S(=O)(=O)c1ccc(OCC2CCOCC2)c(CO)c1` (racemic), in data set [1], the IC50 amounted to 70 nM.

Consider `CCc1ccc2c(c1)CCC(CC)N2S(=O)(=O)c1ccc(OCC2CCOCC2)c(S(N)(=O)=O)c1` (racemic), for which the IC50 in data set [1] is 576 nM.

With `CCc1cnc2c(c1)CCC(CC)N2S(=O)(=O)c1ccc(OCC2CCOCC2)c(CO)c1` (racemic), the IC50 in data set [1] was 35 nM.

Consider `CCc1ccc2c(c1)CCC(CC(C)C)N2S(=O)(=O)c1ccc(OCC2CCOCC2)c(CO)c1` (racemic), for which, in data set [1], the IC50 was 21 nM.

Consider `CCc1ccc2c(c1)CC(CC)CN2S(=O)(=O)c1ccc(OCC2CCOCC2)c(CO)c1` (racemic), for which the IC50 in data set [1] amounted to 32 nM.

In the case of `C=Cc1ccc2c(c1)CCC(CC)N2S(=O)(=O)c1ccc(OCC2CCOCC2)c(CO)c1` (racemic), the IC50 in data set [1] was 36 nM.

In the case of `O=C([O-])Cc1ccccc1Nc1c(Cl)cccc1Cl.[Na+]` [DICLOFENAC SODIUM], the Activity entry in [5] was “Non-Toxic”; in data set [6] it was “Non-Toxic”; in data set [8], “Toxic”; in data set [9], “Non-Toxic”; in [10] it was “Non-Toxic”; in data set [11] it was “Non-Toxic”. Also, the outcome in data set [7], in data set [12], in data set [13], in [14], in [15] and in data set [16] was Active. For the same molecule, the result in data set [17] and in data set [18] was Active.
